From patent US9242959B2, “(Aza)benzhydryl ether derivatives, their process of preparation and their use as H4-receptor ligands for therapeutical applications” (BIOPROJET, priority 2012, dated 2016)
Where a name gives a salt, the structure may show the parent alone.

Columns and labels:
human H4 receptor [1] = target: T1, human H4 receptor (Homo sapiens, UniProt Q9H3N8); assay: GTPγ[35S] binding assay on membranes of SH-SY5Y cells stably expressing human H4 receptor; format: biochemical
T1 construct: expressed in transfected cells
T1 sequence (Q9H3N8 whole entry): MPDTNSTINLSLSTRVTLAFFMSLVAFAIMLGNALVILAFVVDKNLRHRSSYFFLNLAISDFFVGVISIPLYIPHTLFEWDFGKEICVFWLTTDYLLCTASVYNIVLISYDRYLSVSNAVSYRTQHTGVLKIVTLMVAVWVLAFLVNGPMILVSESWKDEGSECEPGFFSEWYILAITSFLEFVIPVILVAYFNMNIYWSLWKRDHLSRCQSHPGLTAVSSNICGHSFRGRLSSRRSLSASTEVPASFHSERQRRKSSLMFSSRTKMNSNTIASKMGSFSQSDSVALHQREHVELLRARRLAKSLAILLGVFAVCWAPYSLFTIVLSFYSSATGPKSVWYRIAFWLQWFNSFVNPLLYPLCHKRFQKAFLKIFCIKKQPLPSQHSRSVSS
Protocol: SH-SY5Y cells stably expressing human H4 receptor are grown until sub-confluence and centrifuged at 300 g 15 minutes at 4° C. Pellets are resuspended in buffer I Tris-HCl 50 mM, MgCl2 10 mM, NaCl 140 mM, pH=7.4 supplemented by Leupeptin 10 μg/mL, Phenyl Methyl Sulphonyl Fluoride (PMSF) 0.1 mM, Aprotinin 2 μg/mL and Pepstatin 2 μM (or a 1/50 dilution of a mix of protease inhibitors). The obtained suspension is stirred gently and submitted to a […] exerted through a syringe. The cell lysate is then centrifuged at 300 g 15 minutes at 4° C. in order to eliminate nucleus and cell scraps. The obtained supernatant is then centrifuged at 48000 g for 30 minutes at 4° C. The final pellet is resuspended in buffer I with a potter homogenizer. Aliquots are frozen in liquid nitrogen and stored until use at −80° C. Protein content is measured by the Bradford method.
Defreezed membranes are diluted at a final concentration of 5 μg/180 μL/well in buffer I supplemented by GDP 10 μM and distributed in 96 well polystyrene microplate. GTPγ [^35S] labelled ligand (0.2-0.3 nM) is added for additional 30 minutes. After transfer in a Millipore GF/C HTS® microplate, the filtration of the rectional mix is followed by a three times 250 μl wash to stop the reaction.
The filter-bound radioactivity is measured in a liquid scintillation counter Microbeta TRILUX® with 50 μl of scintillation fluid.
Results are expressed with IC50 and Ki values.

human H4 receptor [2] = target: T1, human H4 receptor; assay: [3H]Histamine binding assay on membranes of CHO cells stably expressing human H4 receptor
Protocol: CHO cells stably expressing human H4 receptor were grown until sub-confluence and centrifuged at 300 g 15 minutes at 4° C. Pellets were resuspended in buffer I Tris-HCl 50 mM, MgCl2 10 mM, NaCl 140 mM, pH=7.4 supplemented by a 1/50 dilution of a mix of protease inhibitors. The obtained suspension is stirred gently and submitted to a […] exerted through a syringe. The cell lysate is then centrifuged at 300 g 15 minutes at 4° C. in order to eliminate nucleus and cell scraps. The obtained supernatant was then centrifuged at 48000 g for 30 minutes at 4° C. The final pellet is resuspended in buffer I with a potter homogenizer. Aliquots were frozen in liquid nitrogen and stored until use at −80° C. Protein content is measured by the Bradford method.
Defreezed membranes were diluted at a final concentration of 20 μg/180 μL/well in a binding buffer containing 50 mM Tris/HCl, 0.5 mM EDTA, pH=7.4 and distributed in 96 well polystyrene microplate. [^3H] […] Non specific binding was estimated in the presence of 10 μM BP1.2404 (JNJ 7777120). The reaction was terminated by filtration through GF/B filters pre-soaked 2 hours at 4° C. in 1% polyethyleneimine. Filters were rinsed 3 times with 250 μl of ice cold incubation binding buffer.
The filter-bound radioactivity was measured in a liquid scintillation counter Microbeta TRILUX® with 50 μl of scintillation fluid.
The hH4 binding investigated by use of [^3H]

SMILES	melting point	IC50 (human H4 receptor [1])	Ki (human H4 receptor [2])
CN1CCC(OC(c2ccccn2)c2ccccc2O)CC1 (stereo not shown) (as salt: oxalate) [Example 19, 2-[(1-Methylpiperidin-4-yloxy)pyridin-2-ylmethyl]phenol, oxalate]	70 °C	–	–
CN1CCC(OC(c2ccccn2)c2cc(OC(F)(F)F)ccc2F)CC1.O=C(O)C(=O)O.O=C(O)C(=O)O (stereo not shown) [Example 1, 2-[(2-Fluoro-5-trifluoromethoxyphenyl)(1-methylpiperidin-4-yloxy)methyl]pyridine, dioxalate]	45 °C	< 300 nM	< 300 nM
Cc1ccc(C(OC2CCN(C)CC2)c2ccc(Cl)cn2)c(F)c1.O=C(O)C(=O)O (stereo not shown) [Example 2, 5-Chloro-2-[(2-fluoro-4-methylphenyl)(1-methylpiperidin-4-yloxy)methyl]pyridine, oxalate]	165 °C	< 300 nM	< 30 nM
Cc1ccc(C(OC2CCN(C)CC2)c2ccccn2)c(F)c1.O=C(O)C(=O)O.O=C(O)C(=O)O (stereo not shown) [Example 3, 2-[(2-Fluoro-4-methylphenyl)(1-methylpiperidin-4-yloxy)methyl]pyridine, dioxalate]	59 °C	–	< 300 nM
CN1CCC(OC(c2ccc(Cl)cn2)c2cc(OC(F)(F)F)ccc2F)CC1.O=C(O)C(=O)O (stereo not shown) [Example 4, 5-Chloro-2-[(2-fluoro-5-trifluoromethoxyphenyl)(1-methylpiperidin-4-yloxy)methyl]pyridine, oxalate]	75 °C	< 300 nM	< 300 nM
CN1CCC(OC(c2cccc(C#CCCCCN)c2)c2ccccn2)CC1 (stereo not shown) [Example 5, 6-{3-[(1-Methylpiperidin-4-yloxy)pyridin-2-ylmethyl]phenyl}hex-5-ynylamine, oxalate]	–	< 300 nM	< 300 nM
CN1CCC(OC(c2ccncc2)c2cc(OC(F)(F)F)ccc2F)CC1.O=C(O)C(=O)O.O=C(O)C(=O)O (stereo not shown) [Example 6, 4-[(2-Fluoro-5-trifluoromethoxyphenyl)(1-methylpiperidin-4-yloxy)methyl]pyridine, dioxalate]	61 °C	–	< 300 nM
Cc1ccnc(C(OC2CCN(C)CC2)c2cc(OC(F)(F)F)ccc2F)c1.O=C(O)C(=O)O.O=C(O)C(=O)O (stereo not shown) [Example 8, 2-[(2-Fluoro-5-trifluoromethoxyphenyl)(1-methylpiperidin-4-yloxy)methyl]-4-methylpyridine, dioxalate]	43 °C	–	< 300 nM
CN1CCC(OC(c2ccc(Cl)cc2)c2ccc(Cl)cn2)CC1.O=C(O)C(=O)O (stereo not shown) [Example 9, 5-Chloro-2-[(4-chlorophenyl)(1-methylpiperidin-4-yloxy)methyl]pyridine, oxalate]	190 °C	–	< 300 nM
CN1CCC(OC(c2ccc(F)cn2)c2cc(OC(F)(F)F)ccc2F)CC1.O=C(O)C(=O)O (stereo not shown) [Example 11, 5-Fluoro-2-[(2-fluoro-5-trifluoromethoxyphenyl)(1-methylpiperidin-4-yloxy)methyl]pyridine, oxalate]	113 °C	–	< 1000 nM
COc1cccc(C(OC2CCN(C)CC2)c2ccc(Cl)cn2)c1.O=C(O)C(=O)O (stereo not shown) [Example 12, 5-Chloro-2-[(3-methoxyphenyl)(1-methylpiperidin-4-yloxy)methyl]pyridine, oxalate]	175 °C	–	< 1000 nM
CN1CCC(OC(c2cccc(I)c2)c2ccc(Cl)cn2)CC1.O=C(O)C(=O)O (stereo not shown) [Example 13, 5-Chloro-2-[(3-iodophenyl)(1-methylpiperidin-4-yloxy)methyl]pyridine, oxalate]	130 °C	–	< 300 nM
Cc1ccc(C(OC2CCN(C)CC2)c2cc(C(F)(F)F)ccn2)c(F)c1.O=C(O)C(=O)O (stereo not shown) [Example 14, 2-[(2-Fluoro-4-methylphenyl)(1-methylpiperidin-4-yloxy)methyl]-4-trifluoromethylpyridine, oxalate]	104 °C	–	< 300 nM
CN1CCC(OC(c2ccc(F)cn2)c2ccc(F)c(F)c2O)CC1 (stereo not shown) [Example 15, 2,3-Difluoro-6-[(5-fluoropyridin-2-yl)(1-methylpiperidin-4-yloxy)methyl]phenol]	73 °C	–	< 1000 nM
CN1CCC(OC(c2ccc(Cl)cn2)c2ccc(F)c(F)c2O)CC1 (stereo not shown) [Example 16, 6-[(5-Chloropyridin-2-yl)(1-methylpiperidin-4-yloxy)methyl]-2,3-difluorophenol]	68 °C	–	< 300 nM
CCOC(=O)NCCCCC#Cc1cccc(C(OC2CCN(C)CC2)c2ccccn2)c1.O=C(O)C(=O)O (stereo not shown) [Example 17, (6-{3-[(1-Methylpiperidin-4-yloxy)pyridin-2-ylmethyl]phenyl}hex-5-ynyl)carbamic acid ethyl ester, oxalate]	77 °C	–	< 1000 nM
CN1CCC(OC(c2ccccn2)c2ccccc2O)CC1 (stereo not shown) [Example 19, 2-[(1-Methylpiperidin-4-yloxy)pyridin-2-ylmethyl]phenol, oxalate]	–	–	< 300 nM
CN1CCC(OC(c2ccc(F)cn2)c2ccc(F)cc2O)CC1.O=C(O)C(=O)O (stereo not shown) [Example 20, 5-Fluoro-2-[(5-fluoropyridin-2-yl)(1-methylpiperidin-4-yloxy)methyl]phenol, oxalate]	105 °C	–	< 300 nM
Cc1ccc(C(OC2CCN(C)CC2)c2ccc(F)cn2)c(O)c1F (stereo not shown) [Example 21, 2-Fluoro-6-[(5-fluoropyridin-2-yl)(1-methylpiperidin-4-yloxy)methyl]-3-methylphenol]	62 °C	–	< 300 nM
Cc1ccc(C(OC2CCN(C)CC2)c2ccc(Cl)cn2)c(O)c1F (stereo not shown) [Example 22, 6-[(5-Chloropyridin-2-yl)(1-methylpiperidin-4-yloxy)methyl]-2-fluoro-3-methylphenol]	67 °C	–	< 30 nM
CN1CCC(OC(c2ccc(Cl)cn2)c2ccc(F)cc2O)CC1 (stereo not shown) [Example 23, 2-[(5-Chloropyridin-2-yl)(1-methylpiperidin-4-yloxy)methyl]-5-fluorophenol]	57 °C	–	< 30 nM
Cc1ccc(C(OC2CCN(C)CC2)c2ccc(F)cn2)c(O)c1.O=C(O)C(=O)O (stereo not shown) [Example 24, 2-[(5-Fluoropyridin-2-yl)(1-methylpiperidin-4-yloxy)methyl]-5-methylphenol, oxalate]	77 °C	–	< 30 nM
Cc1ccc(C(OC2CCN(C)CC2)c2ccc(Cl)cn2)c(O)c1.O=C(O)C(=O)O (stereo not shown) [Example 25, 2-[(5-Chloropyridin-2-yl)(1-methylpiperidin-4-yloxy)methyl]-5-methylphenol, oxalate]	77 °C	–	< 30 nM
Cc1ccc(C(OC2CCN(C)CC2)c2cc(F)ccn2)c(O)c1F (stereo not shown) [Example 26, 2-Fluoro-6-[(4-fluoropyridin-2-yl)(1-methylpiperidin-4-yloxy)methyl]-3-methylphenol]	64 °C	–	< 300 nM
Cc1ccc(C(OC2CCN(C)CC2)c2cccc(I)c2)cc1.O=C(O)C(=O)O (stereo not shown) [Example 27, 4-[(3-Iodophenyl)-p-tolylmethoxy]-1-methylpiperidine, oxalate]	60 °C	–	< 1000 nM
Cc1ccc(C(OC2CCN(C)CC2)c2ccc3ccccc3c2)c(F)c1.O=C(O)C(=O)O (stereo not shown) [Example 29, 4-[(2-Fluoro-4-methylphenyl)naphthalen-2-yl-methoxy]-1-methylpiperidine, oxalate]	122 °C	< 1000 nM	–
Cc1ccc(C(OC2CCN(C)CC2)c2ccc(Cl)cc2)c(F)c1.O=C(O)C(=O)O (stereo not shown) [Example 34, 4-[(4-Chlorophenyl)(2-fluoro-4-methylphenyl)methoxy]-1-methylpiperidine, oxalate]	165 °C	–	< 300 nM
CN1CCC(OC(c2ccc(Cl)cc2)c2cccc(C#CCCCCN)c2)CC1 (stereo not shown) [Example 36, 6-{3-[(4-Chlorophenyl)(1-methylpiperidin-4-yloxy)methyl]phenyl}hex-5-ynylamine, dioxalate]	–	< 30 nM	< 30 nM
CN1CCC(OC(c2cccc(I)c2)c2ccccn2)CC1 (stereo not shown) [Example 37, 2-[(3-Iodophenyl)(1-methylpiperidin-4-yloxy)methyl]pyridine, oxalate]	–	–	< 1000 nM
